This passage reports IC50 results from US20260158017A1, “KIF18A INHIBITOR” (WIGEN BIOMEDICINE TECHNOLOGY (SHANGHAI) CO., LTD., priority 2021, published 2026).

In the assay the target is T1, Recombinant human KIF18A (1-467His-tagged) protein (Homo sapiens, UniProt Q8NI77).
T1 construct: Recombinant human KIF18A (1-467His-tagged) protein; His; made in house
T1 sequence (Q8NI77 1-467): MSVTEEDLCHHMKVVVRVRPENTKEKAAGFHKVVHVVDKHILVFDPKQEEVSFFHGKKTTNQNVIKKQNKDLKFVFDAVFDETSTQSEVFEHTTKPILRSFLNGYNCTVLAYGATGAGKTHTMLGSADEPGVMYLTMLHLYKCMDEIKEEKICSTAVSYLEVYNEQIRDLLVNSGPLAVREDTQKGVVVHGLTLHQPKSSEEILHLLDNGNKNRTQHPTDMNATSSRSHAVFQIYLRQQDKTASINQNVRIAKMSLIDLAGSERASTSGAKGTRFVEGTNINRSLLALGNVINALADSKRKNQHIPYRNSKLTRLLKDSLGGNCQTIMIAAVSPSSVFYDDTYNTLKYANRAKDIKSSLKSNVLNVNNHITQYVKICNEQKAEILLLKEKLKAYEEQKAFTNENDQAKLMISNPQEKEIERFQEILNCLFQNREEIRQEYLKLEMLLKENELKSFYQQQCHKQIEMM
T1 sequence (P02550 whole entry partner): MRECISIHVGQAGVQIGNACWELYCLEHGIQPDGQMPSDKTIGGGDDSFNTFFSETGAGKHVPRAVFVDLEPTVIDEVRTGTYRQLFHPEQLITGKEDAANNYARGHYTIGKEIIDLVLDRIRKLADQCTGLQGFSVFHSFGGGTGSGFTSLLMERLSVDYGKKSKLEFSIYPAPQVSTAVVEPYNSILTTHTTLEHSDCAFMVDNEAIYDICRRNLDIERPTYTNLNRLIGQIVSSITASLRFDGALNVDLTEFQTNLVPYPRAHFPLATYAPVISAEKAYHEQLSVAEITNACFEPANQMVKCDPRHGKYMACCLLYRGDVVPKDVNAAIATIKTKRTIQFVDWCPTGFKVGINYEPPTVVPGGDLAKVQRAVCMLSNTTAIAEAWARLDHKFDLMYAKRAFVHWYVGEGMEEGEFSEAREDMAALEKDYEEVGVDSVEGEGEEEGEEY
T1 sequence (P02554 whole entry partner): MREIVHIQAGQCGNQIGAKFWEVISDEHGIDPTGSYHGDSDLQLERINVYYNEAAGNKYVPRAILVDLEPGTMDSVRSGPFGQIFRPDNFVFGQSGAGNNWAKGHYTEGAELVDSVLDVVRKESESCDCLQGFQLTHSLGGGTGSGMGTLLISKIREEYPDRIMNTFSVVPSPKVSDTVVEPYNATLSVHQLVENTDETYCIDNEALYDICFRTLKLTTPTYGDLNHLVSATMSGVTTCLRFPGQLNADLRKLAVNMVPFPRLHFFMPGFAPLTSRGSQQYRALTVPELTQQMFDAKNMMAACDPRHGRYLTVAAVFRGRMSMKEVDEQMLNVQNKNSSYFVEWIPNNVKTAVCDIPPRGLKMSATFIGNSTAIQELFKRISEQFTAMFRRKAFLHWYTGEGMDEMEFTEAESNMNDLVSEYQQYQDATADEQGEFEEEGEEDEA
Nature of the assay: KIF18A enzyme assay (microtubule-stimulated ATPase activity, ADP-Glo). It counts as biochemical. The conditions noted are these: 30 nM KIF18A, 75 μM ATP, 30 μg/mL pig microtubules; read-out: Inhibitory activity against KIF18A IC50. The method, boiled down:
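Buffer 15 mM Tris pH 7.5, 10 mM MgCl2, 0.01% Pluronic F-68, 1 μM paclitaxel, 30 μg/mL pig microtubules; reactions at room temperature. IC50 from inhibition relative to DMSO.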
Consider `CSc1ccc(NC(=O)c2cnc(NS(=O)(=O)[C@H](C)CO)cc2N2CCC3(CC2)CC3)nc1N1CCO[C@H](C)C1` [Compound 640], for which the IC50 (commonly the concentration that inhibits the measured activity by half) is no more than 100 nM.
The value for `CSc1ccc(NC(=O)c2ccc(NS(=O)(=O)CCO)cc2N2CCC3(CC2)CC3)nc1N1CC(F)(F)C1` [Compound 596] was no more than 100 nM; that for `CC(C)(CO)Nc1cc(C(=O)Nc2ccc(NS(=O)(=O)CCO)cc2N2CCC3(CC2)CC3)ccc1OCF` [Compound 523] was no more than 100 nM; that for `O=C(Nc1ccc(NS(=O)(=O)CCO)cc1N1CCC2(CC1)CC2)c1ccc(OCF)c(N2CC(F)(F)C2)n1` [Compound 548] was no more than 100 nM.
As to `C[C@@H](CO)S(=O)(=O)Nc1cc(N2CCC3(CC2)CC3)c(C(=O)Nc2ccc(OCF)c(N3CCC(F)(F)CC3)n2)cn1` [Compound 493], the IC50 was no more than 100 nM.
In the case of `CSc1ccc(NC(=O)c2ccc(NS(=O)(=O)CCO)cc2N2CCC3(CC2)CC3)cc1OC1CCC1` [Compound 583], the IC50 is no more than 100 nM.
The value for `C[C@H](CO)NS(=O)(=O)c1ccc(NC(=O)c2ccc(OCF)c(N3CCC(F)(F)CC3)n2)c(N2CCC3(CC2)CC3)c1` [Compound 574] was 100 to 500 nM; that for `COc1ccc(C(=O)Nc2cnc(NS(=O)(=O)[C@@H](C)CO)cc2N2CCC3(CC2)CC3)nc1N1CCO[C@H](C)C1` [Compound 367] was no more than 100 nM; that for `O=C(Nc1ccc(OCF)c(N2CC3CC3C2)n1)c1ccc(S(=O)(=O)NCCO)cc1N1CCC2(CC1)CC2` (stereo not shown) [Compound 442] was no more than 100 nM.
`C[C@H](CO)S(=O)(=O)Nc1ccc(NC(=O)c2ccc(OCF)c(N3CCC(F)(F)CC3)c2)c(N2CCC3(CC2)CC3)c1` [Compound 526]: the concentration for half-maximal inhibition (IC50) is no more than 100 nM.
The value for `O=C(Nc1ccc(OCF)c(N2CC(F)(F)C2)c1)c1cnc(NS(=O)(=O)CCO)cc1N1CCC2(CC1)CC2` [Compound 452] was no more than 100 nM; that for `C[C@@H](CO)NS(=O)(=O)c1cc(N2CCC3(CC2)CC3)c(NC(=O)c2ccc([N+](=O)[O-])c(N3CCC(F)(F)CC3)n2)cn1` [Compound 253] was 100 to 500 nM.
In the case of `O=C(Nc1ccc(NS(=O)(=O)CCO)cc1N1CCC2(CC1)CC2)c1ccc([N+](=O)[O-])c(N2CC(F)(F)C2)n1` [Compound 164], the IC50 is no more than 100 nM.
Take `CC1(F)CCN(c2nc(NC(=O)c3cnc(NS(=O)(=O)CCO)cc3N3CCC4(CC3)CC4)ccc2OCF)C1` (stereo not shown) [Compound 488]: the half-inhibitory concentration (IC50) is no more than 100 nM.
On to `CSc1ccc(NC(=O)c2ccc(NS(=O)(=O)[C@H](C)CO)cc2N2CCC3(CC2)CC3)cc1N1CCC(F)(F)CC1` [Compound 590], for which the IC50 was no more than 100 nM.
With `C[C@H]1CN(c2nc(C(=O)Nc3ccc(S(=O)(=O)NCCO)cc3N3CCC4(CC3)CC4)ccc2[N+](=O)[O-])CCO1` [Compound 179] the figure was 100 to 500 nM; with `O=C(Nc1ccc(S(=O)(=O)NCCO)cc1N1CCC2(CC1)CC2)c1ccc(OCF)c(N2CC(F)(F)C2)c1` [Compound 532], 100 to 500 nM.
As for `O=C(Nc1ccc(OCF)c(N2CC(F)(F)C2)c1)c1cnc(S(=O)(=O)NCCO)cc1N1CCC2(CC1)CC2` [Compound 468], the IC50 was no more than 100 nM.
The value for `C[C@@H]1CN(c2cc(NC(=O)c3ccc(S(=O)(=O)N[C@@H](C)CO)cc3N3CCC4(CC3)CC4)ccc2OCF)CCO1` [Compound 415] was no more than 100 nM; that for `C[C@@H]1CN(c2cc(NC(=O)c3ccc(NS(=O)(=O)[C@@H](C)CO)cc3N3CCC4(CC3)CC4)ccc2OCF)CCO1` [Compound 399] was no more than 100 nM.
The value for `O=C(Nc1ccc(S(=O)(=O)NCCO)cc1N1CCC2(CC1)CC2)c1ccc([N+](=O)[O-])c(N2CCC(F)(F)CC2)n1` [Compound 177] was 100 to 500 nM.
With `C[C@@H](CO)S(=O)(=O)Nc1ccc(C(=O)Nc2ccc([N+](=O)[O-])c(N3CCC(F)(F)CC3)c2)c(N2CCC3(CC2)CC3)c1` [Compound 13] the figure was no more than 100 nM; with `O=C(Nc1ccc(NS(=O)(=O)CCO)cc1N1CCC2(CC1)CC2)c1ccc(OCF)c(N2CCC(F)CC2)n1` [Compound 553], no more than 100 nM; with `O=C(Nc1ccc(S(=O)(=O)NCCO)cc1N1CCC2(CC1)CC2)c1ccc([N+](=O)[O-])c(N2CCC(F)CC2)c1` [Compound 57], 100 to 500 nM.
With `COc1ccc(C(=O)Nc2ccc(NS(=O)(=O)CCO)cc2N2CCC3(CC2)CC3)nc1NC(C)(C)CO` [Compound 331], the IC50 is no more than 100 nM.
With `CSc1ccc(NC(=O)c2cnc(NS(=O)(=O)CCO)cc2N2CCC3(CC2)CC3)nc1N1CCC2(CC2)C1` [Compound 630] the figure was no more than 100 nM.
Regarding `CC(C)(CO)Nc1nc(NC(=O)c2ccc(S(=O)(=O)NCCO)cc2N2CCC3(CC2)CC3)ccc1OCF` [Compound 443], the IC50 was no more than 100 nM.
As for `COc1ccc(NC(=O)c2cnc(S(=O)(=O)NCCO)cc2N2CCC3(CC2)CC3)nc1N1CC2CC2C1` (stereo not shown) [Compound 314], the IC50 is no more than 100 nM.
On to `C[C@H](CO)S(=O)(=O)Nc1cc(N2CCC3(CC2)CC3)c(NC(=O)c2ccc([N+](=O)[O-])c(N3CCC(F)(F)CC3)c2)cn1` [Compound 206], for which the IC50 was no more than 100 nM.
With `O=C(Nc1cnc(S(=O)(=O)NCCO)cc1N1CCC2(CC1)CC2)c1ccc([N+](=O)[O-])c(N2CCC(F)CC2)n1` [Compound 249] the figure was 100 to 500 nM.
The value for `C[C@@H](CO)NS(=O)(=O)c1cc(N2CCC3(CC2)CC3)c(C(=O)Nc2ccc(OCF)c(N3CCC(F)(F)CC3)c2)cn1` [Compound 477] was no more than 100 nM; that for `CSc1ccc(NC(=O)c2cnc(NS(=O)(=O)CCO)cc2N2CCC3(CC2)CC3)cc1N1CCC2(CC2)C1` [Compound 614] was no more than 100 nM.
With `O=C(Nc1ccc([N+](=O)[O-])c(N2CC3CC3C2)c1)c1ccc(NS(=O)(=O)CCO)cc1N1CCC2(CC1)CC2` (stereo not shown) [Compound 10] the figure was no more than 100 nM.
In the case of `O=C(Nc1ccc(OCF)c(N2CC3CC3C2)c1)c1ccc(S(=O)(=O)NCCO)cc1N1CCC2(CC1)CC2` (stereo not shown) [Compound 410], the IC50 was no more than 100 nM.
On to `O=C(Nc1cnc(NS(=O)(=O)CCO)cc1N1CCC2(CC1)CC2)c1ccc([N+](=O)[O-])c(N2CCOCC2)c1` [Compound 204], for which the IC50 is no more than 100 nM.
Turning to `COc1ccc(NC(=O)c2cnc(S(=O)(=O)NCCO)cc2N2CCC3(CC2)CC3)nc1N1CCO[C@@H](C)C1` [Compound 307], the concentration for half-maximal inhibition (IC50) was no more than 100 nM.
With `O=C(Nc1ccc(NS(=O)(=O)CCO)cc1N1CCC2(CC1)CC2)c1ccc(OCF)c(N2CC3CC3C2)n1` (stereo not shown) [Compound 554] the figure was no more than 100 nM; with `COc1ccc(C(=O)Nc2cnc(NS(=O)(=O)CCO)cc2N2CCC3(CC2)CC3)nc1OCCC(F)(F)F` [Compound 357], no more than 100 nM; with `CSc1ccc(NC(=O)c2ccc(NS(=O)(=O)[C@@H](C)CO)cc2N2CCC3(CC2)CC3)nc1N1CCC(F)(F)CC1` [Compound 605], no more than 100 nM.
The value for `O=C(Nc1ccc([N+](=O)[O-])c(OCCC(F)(F)F)c1)c1cnc(NS(=O)(=O)CCO)cc1N1CCC2(CC1)CC2` [Compound 101] was no more than 100 nM.
As for `O=C(Nc1ccc(OCF)c(N2CC3CC3C2)n1)c1ccc(NS(=O)(=O)CCO)cc1N1CCC2(CC1)CC2` (stereo not shown) [Compound 426], the IC50 was no more than 100 nM.
The value for `COc1ccc(C(=O)Nc2ccc(S(=O)(=O)NCCO)cc2N2CCC3(CC2)CC3)nc1N1CCC2(CC2)C1` [Compound 342] was no more than 100 nM; that for `C[C@H](CO)S(=O)(=O)Nc1ccc(NC(=O)c2ccc([N+](=O)[O-])c(N3CCC(F)(F)CC3)n2)c(N2CCC3(CC2)CC3)c1` [Compound 174] was no more than 100 nM; that for `O=C(Nc1ccc([N+](=O)[O-])c(OCCC(F)(F)F)n1)c1ccc(S(=O)(=O)NCCO)cc1N1CCC2(CC1)CC2` [Compound 85] was no more than 100 nM.
The value for `O=C(Nc1ccc(OCF)c(N2CCC(F)(F)CC2)c1)c1cnc(S(=O)(=O)NCCO)cc1N1CCC2(CC1)CC2` [Compound 465] was no more than 100 nM; that for `COc1ccc(NC(=O)c2ccc(S(=O)(=O)NCCO)cc2N2CCC3(CC2)CC3)nc1N1CC2CC2C1` (stereo not shown) [Compound 282] was no more than 100 nM; that for `C[C@H]1CN(c2cc(C(=O)Nc3ccc(NS(=O)(=O)CCO)cc3N3CCC4(CC3)CC4)ccc2OCF)CCO1` [Compound 515] was no more than 100 nM.
The value for `COc1ccc(NC(=O)c2cnc(S(=O)(=O)NCCO)cc2N2CCC3(CC2)CC3)nc1N1CCC(F)CC1` [Compound 313] was no more than 100 nM; that for `O=C(Nc1ccc(OCF)c(OC2CCC2)c1)c1cnc(S(=O)(=O)NCCO)cc1N1CCC2(CC1)CC2` [Compound 471] was no more than 100 nM; that for `C[C@@H]1CN(c2nc(NC(=O)c3cnc(NS(=O)(=O)[C@H](C)CO)cc3N3CCC4(CC3)CC4)ccc2OCF)CCO1` [Compound 496] was no more than 100 nM.
Consider `COc1ccc(NC(=O)c2ccc(NS(=O)(=O)[C@@H](C)CO)cc2N2CCC3(CC2)CC3)nc1N1CCC(F)(F)CC1` [Compound 269], for which the IC50 is no more than 100 nM.
The value for `CC1(F)CCN(c2cc(NC(=O)c3cnc(NS(=O)(=O)CCO)cc3N3CCC4(CC3)CC4)ccc2OCF)C1` (stereo not shown) [Compound 456] was no more than 100 nM.
With `O=C(Nc1ccc(S(=O)(=O)NCCO)cc1N1CCC2(CC1)CC2)c1ccc(OCF)c(N2CCC(F)(F)CC2)c1` [Compound 529] the figure was 100 to 500 nM; with `C[C@@H]1CN(c2cc(C(=O)Nc3cnc(NS(=O)(=O)[C@H](C)CO)cc3N3CCC4(CC3)CC4)ccc2[N+](=O)[O-])CCO1` [Compound 208], no more than 100 nM.
For `O=C(Nc1ccc(OCF)c(OC2CCC2)n1)c1ccc(S(=O)(=O)NCCO)cc1N1CCC2(CC1)CC2` [Compound 439], the concentration for half-maximal inhibition (IC50) was no more than 100 nM.
`C[C@H](CO)NS(=O)(=O)c1ccc(NC(=O)c2ccc([N+](=O)[O-])c(N3CCO[C@H](C)C3)c2)c(N2CCC3(CC2)CC3)c1` [Compound 64]: the 50% inhibitory concentration (IC50) was 100 to 500 nM.
With `O=C(Nc1ccc(OCF)c(OCCC(F)(F)F)c1)c1cnc(S(=O)(=O)NCCO)cc1N1CCC2(CC1)CC2` [Compound 469] the figure was no more than 100 nM; with `CC(C)(CO)Nc1cc(NC(=O)c2cnc(NS(=O)(=O)CCO)cc2N2CCC3(CC2)CC3)ccc1OCF` [Compound 459], no more than 100 nM.
